Entries after “also recorded” stand apart in the source; their conditions may differ.
Assays:
mice = assay: Timing/Peak Procedure operant test (attention, impulsivity); type: in vivo; details: 0.1 mg/kg IP, FIG. 1
Description: The Timing/Peak Procedure test is an operant test in which mice are trained to respond to a food reward at a fixed time interval of 30 sec. Mice learn to increase their responding around the 30 sec time period. This test assesses impulsivity, attention and timing perception. A high peak of responding at the 30 sec interval and narrow spread are signatures of the animal's improved attention and time perception.
In brief, mice were placed in a chamber and trained to lever press for food. After training, animals learn to respond after a fixed interval of 30 sec has elapsed as only this fixed interval response produces a reward. With reinforcement delivery the lever is retracted and an inter-trial-interval commences. Once the animal was trained on the reinforced trials, “peak trials” or unreinforced trials are introduced and intermixed with reinforced trials. During these empty trials, no responses were reinforced and the trial lasts for 120 sec (i.e., the lever is extended but reinforcement is not presented). After the 120 sec elapses, the trial terminated, the lever was retracted and the inter-trial-interval started as before. The animals therefore learned that if after a period of 30 sec, no food has been presented there will be no reinforcement delivery until the lever is retracted and the trial starts again.
To perform well on this task, animals need to learn an association between a response (lever pressing) and the delivery of reinforcement (condensed milk), they need to perceive and remember time, they need to act on the remembered time by responding or by inhibiting a response and finally they need to compare the elapsed time during a trial with their memory for the time for reinforcement. A true cognitive enhancer therefore should decrease responding after reinforcement time, without affecting the peak time, i.e., sharpening the curve and reducing the spread in the response curve. A sharpened curve is indicative of heightened attentional processes.

Male Wistar rats = assay: Novel Object Recognition Test (NOR); type: in vivo; details: 0.3, 1, 3, and 10 mg/kg, 1 h prior to training, 24 hours post training, FIG. 3
Description: In addition to working memory deficits, the initiative, “Measurement and Treatment Research to Improve Cognition in Schizophrenia” (MATRICS) has identified other domains of learning and memory in which schizophrenia patients show impaired visual learning and memory. There are several visual learning and memory tasks appropriate for study in rodents (Powell, S. B. and M. A. Geyer, Overview of animal models of schizophrenia. Curr Protoc Neurosci, 2007. Chapter 9: p. Unit 9 24). […]
Male Wistar rats were assessed for cognitive ability in a test apparatus comprising an open-field arena placed in a sound-attenuated room under dimmed lighting. […] All tests were video scored by an observer blind to treatment. […] Each rat was placed in the arena facing the same direction at the same position, and the time spent actively exploring the objects during a 10-minute test period was recorded. […] After 24 hours, each rat was placed again in the test arena for 10 minutes in the presence of one of the familiar objects and a novel object, and the time spent exploring both objects was recorded. […] The percent time spent exploring the novel object was recorded.

[1] = tested on: prefrontal cortex (PFC) of C57 mice; assay: Microdialysis in the prefrontal cortex; type: in vivo; details: 3, 10 and 30 mg/kg, six mice per dose group
Experimental: Microdialysis probes were implanted in the prefrontal cortex; coordinates were: AP+2.0 mm, ML+0.7 mm (under an 8° angle) from bregma, DV −3.3 mm from the dura, with the tooth-bar also set at 0 mm. The active dialysis surface length of the membrane was 2 mm. Microdialysis experiments started 48 h (prefrontal cortex) after surgery. Ringer solution was perfused through the microdialysis probe at a flow at 1.166 μl/min using a high precision pump (KdScientific 220). Mouse dual channel swivels (Type 375/D/22QM, Instech Laboratories, Inc.) connected to PEEK-tubing (ID 0.005,″ OD 0.020″) were used to allow unrestrained movements of the mice. Samples were collected by hand 2.5 h after the start of the dialysis probe perfusion to obtain stable baseline values for the monoamines and their metabolites. The average of the first four samples was calculated and represents the baseline level. Samples were collected every 30 min were analyzed by HPLC with electrochemical detection.
Six mice per dose group were treated with vehicle or eltoprazine at 3 mg/kg, 10 mg/kg and 30 mg/kg.

dopamine receptors = details: Schipper et al.; read-out: Ki (affinity for dopamine receptors); cited from earlier work
5-HT1A = biological target: T1, 5-HT1A (Homo sapiens, UniProt P08908); details: Schipper et al.; cited from earlier work
T1 sequence (P08908 1-422): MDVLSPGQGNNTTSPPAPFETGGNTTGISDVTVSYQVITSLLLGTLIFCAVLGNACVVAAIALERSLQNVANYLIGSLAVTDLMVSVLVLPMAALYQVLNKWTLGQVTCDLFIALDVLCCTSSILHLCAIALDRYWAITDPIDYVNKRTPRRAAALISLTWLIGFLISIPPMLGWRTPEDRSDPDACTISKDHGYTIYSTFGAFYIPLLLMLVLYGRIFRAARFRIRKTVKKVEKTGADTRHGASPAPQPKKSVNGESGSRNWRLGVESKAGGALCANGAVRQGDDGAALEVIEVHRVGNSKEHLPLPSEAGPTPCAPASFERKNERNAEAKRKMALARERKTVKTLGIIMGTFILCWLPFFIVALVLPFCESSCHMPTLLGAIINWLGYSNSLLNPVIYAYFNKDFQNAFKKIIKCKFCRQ

## c1cc2c(c(N3CCNCC3)c1)OCCO2 [Eltoprazine, 1-(2,3-dihydro-1,4-benzodioxanyl-5-yl) piperazine]
mice
  Peak of responding: sharpens the peak of responding
  Spread of the response curve: significantly reduces the spread
mice; listed as eltoprazine
  Peak of responding: sharpened the peak of responding
mice; chronic administration
  Effect following chronic administration: no loss of effect
Male Wistar rats
  Novel object recognition (NOR) memory vs. vehicle-treated controls: significantly improved
[1]; FIG. 4
  Release of dopamine in the PFC: significant release; also recorded: dose-related increase
[1]; FIG. 5
  Release of the dopamine metabolite DOPAC in the PFC: dose-related increase
[1]; FIG. 6
  Release of the metabolite HVA in the PFC: dose-related increase
[1]; FIG. 7
  Release of norepinephrine in the PFC: significant release; also recorded: dose-related increase
Dopamine receptors
  Ki: > 1000 nM
5-HT1A
  Binding affinity for 5-HT1A: roughly equipotent affinity
